# Experimental data from US20060047171A1, “Catalytic hydrogenation of nitriles to produce capsaicinoid derivatives and amine compounds, and methods for purifying and obtaining the polymorphs thereof” (priority 2003, published 2006).
# Entries after “also recorded” stand apart in the source; their conditions may differ. Like-named read-outs stand apart in the source and are kept apart here.
# Columns and labels:
# [1] = Thermal stress experiments (DSC and XRPD), interconversion of forms; assay type: physicochemical
# Protocol: To further evaluate these observations, DSC thermograms were obtained for select compounds at various ramping rates to evaluate interconversion of forms, as shown in FIGS. 2(a)-2(c) and 3(a)-3(c). FIGS. 2(a)-2(c) show the conversion of Form I to Form II. The conversion is most readily observed in FIG. 2(a), as conversion was more difficult to observe at the faster ramp rates. […] Additionally, isothermal heating experiments were performed with evaluation by DSC and XRPD to confirm any change of form, as shown in FIGS. 2(d)-2(f) and 3(d)-(f) and Table 3. FIGS. 2(e) and 3(e) show the original XRPD for Forms I and IV, respectively, while FIGS. 2(f) and 3(f) show the XRPD of Form II, formed after thermal conversion.
# [2] = tested on: yeast induced hyperalgesia; test: Randall-Selitto test; assay type: in vivo, rat; settings: rats, pain threshold of yeast-injected foot
# Protocol: Randall-Selitto Test was carried out by following the method described in Arch. Int.
# Male albino rats (120-170 g) of the Charles River Sprague-Dawley strain are used. Inflammation is produced by the injection of 0.1 mL of a 20% suspension of Brewer's yeast into the plantar surface of the rat's hind foot.
# The pain threshold is measured as the pressure in mm Hg required to induce the desired response (a sharp audible squeak and/or struggle) when the pressure is applied to the foot. Air pressure from an air line is admitted through a needle valve to a 20 mL glass syringe and to a pressure gauge connected by a T-tube. The syringe is mounted with the plunger downward to which is connected a short bullet-shaped Teflon peg. The pressure is applied to the foot of the rat at the rate of 10 mmHg per second. Drug is given 2 hours after the yeast injection. Two hours after the drug administration, threshold response is determined.
# The analgesic activity was determined in terms of the percentage of inhibition of response: Inhibition (%)=(TTG−TCG)/TCG×100, where TTG is the Threshold of Treated Group, and TCG is the Threshold of the Control Group.
# [3] = tested on: tail flick response to radiant heat; settings: cited from earlier work; for Inhibition (%): mice
# [4] = Qualitative solubility of DA-5018 in common solvents; assay type: physicochemical
# Protocol: In order to show which solvents or solvent/antisolvent combinations are appropriate for crystallization studies, the solubility of DA-5018 in twelve solvents was qualitatively evaluated on a 500 mg-scale. In these experiments, DA-5018 was suspended in 5 volumes of the appropriate solvent and stirred at ambient temperature, then incrementally heated until a complete solubilization was achieved.
# [5] = Solubility curve / metastable zone width in methanol/water (1:1.25, v/v); assay type: physicochemical
# Protocol: A standard procedure to determine the width of the metastable zone was used to determine the solubility curves of DA-5018 in methanol/water (1:1.25, v/v). In this procedure, DA-5018 (2.0 g) was suspended in 15 mL (7.5 vol) of methanol/water (1:1.25, v/v) and heated until all solids were dissolved (approximately 55° C.). The resulting solution was then very slowly cooled at a fixed rate of 0.2° C./min and the nucleation temperature recorded. The mixture was slowly reheated and the temperature of complete dissolution recorded. The solution was then iteratively diluted with a known volume of solvent and the nucleation as well as the dissolution points recorded at gradually lower concentrations to provide additional data points on the saturation curve as well as on the solubility curve. By definition, for a given concentration, the distance between the solubility curve and the saturation curve provides the metastable zone width (MSZW), in which crystal growth can be achieved upon careful seeding and controlled cooling, antisolvent addition, evaporation or pH adjustment, depending on the chosen crystallization conditions. Such a protocol is often crucial in maximizing crystal growth and curbing spontaneous, secondary nucleation that leads to uncontrolled crystallization.
# [6] = Hygroscopicity by dynamic vapor sorption (DVS); assay type: physicochemical; settings: for hygroscopicity (in words): DVS, conditions up to 90% RH
# Protocol: Dynamic vapor sorption analysis (DVS) was at times performed on the sample “as is”. Samples were placed in sample pan and underwent a 2-hour drying in a dry nitrogen stream. The samples were then analyzed under the following conditions:
# Isothermal Sequence: • Adsorption: 10-90% RH; step size 10% • Desorption: 85-0% RH; step size 10%
# Each RH point was obtained after the weight loss curve reached an asymptote. After the isotherm was complete, the sample was heated to 80° C. until the weight loss curve reached an asymptote or for 4 hours maximum.
# Hygroscopicity studies were conducted by DVS on both the original Form I (FIG. 4) and the thermally converted Form II (FIG. 5) of DA-5018. […] In an attempt to further evaluate the physical form of the dihydrate, a second sample of DA-5018 was converted to the dihydrate by exposing the material to 85% RH overnight in the DVS instrument.
# [7] = tested on: adjuvant induced hyperalgesia; settings: 5 mg/Kg; rats; DA-5018 perorally two hours before tail-pinch testing; cited from earlier work
compound,measurement,setting,value
"COc1cc(CC(=O)NCCCc2ccc(C)c(C)c2)ccc1OCCN [Form IV, 2-[4-(2-aminoethoxy)-3-methoxyphenyl]-N-[3-(3,4-dimethylphenyl)propyl]acetamide]",conversion of form under thermal stress / melt (in words),"[1]; DSC at various ramping rates, melt",conversion of Form IV to Form II
CC(=O)Oc1ccccc1C(=O)O [Aspirin],Inhibition (%),[2]; 100 mg/Kg s. c.,80.1%
same,Inhibition (%),[3]; 100 mg/Kg p. o.,0%
CN1C(C(=O)Nc2ccccn2)=C(O)c2ccccc2S1(=O)=O [Piroxicam],Inhibition (%),[3]; 100 mg/Kg p. o.,0%
CCCCCCCC/C=C\CCCCCCCC(=O)NCc1ccc(OCCN)c(OC)c1 [NE-21610],Inhibition (%),[3]; 200 mg/Kg p. o.,50%
CN1CC[C@]23c4c5ccc(O)c4O[C@H]2[C@@H](O)C=C[C@H]3[C@H]1C5 [Morphine],Inhibition (%),[2]; 3 mg/Kg s. c.,391.7%
same,activity in the tail flick test (in words),"[3]; mouse, in vivo",active
"3-(3,4-Dimethylphenyl)acrylonitrile [Example 1]",Inhibition (%),[3]; 0.5 mg/Kg s. c.,50%
same,Inhibition (%),[3]; 1.0 mg/Kg s. c.,70%
"COc1cc(CC(=O)NCCCc2ccc(C)c(C)c2)ccc1OCCN [DA-5018, 2-[4-(2-aminoethoxy)-3-methoxyphenyl]-N-[3-(3,4-dimethylphenyl)propyl]acetamide]",solubility (in words),"[4]; MEK, MIBK, EtOAc, IPAc and acetonitrile",sparingly soluble
same,solubility (in words),[4]; methanol at 50° C.,freely soluble
same,solubility (in words),"[4]; methyl tert-butyl ether (MTBE), even at reflux",limited solubility
same,DA-5018 Solubility Trend,"[4]; ranking of solvents, 500 mg-scale, 5 volumes of solvent, ambient temperature then incrementally heated","Acetone >> Methanol > THF > Ethanol, 1-Propanol > 2-; also recorded: Propanol> MEK > MIBK > CH3CN, EtOAc, IPAc >> MTBE >>> Water"
same,Nucleation Temperature (° C.),"[5]; 2.0 g DA-5018 in 15 mL methanol/water (1:1.25, v/v), cooled at 0.2° C./min",39.1 °C
same,Nucleation Temperature (° C.),"[5]; 2.0 g DA-5018 in 20 mL methanol/water (1:1.25, v/v)",34.6 °C
same,Nucleation Temperature (° C.),"[5]; 2.0 g DA-5018 in 25 mL methanol/water (1:1.25, v/v)",34.5 °C
same,Nucleation Temperature (° C.),"[5]; 2.0 g DA-5018 in 30 mL methanol/water (1:1.25, v/v)",34.2 °C
same,Inhibition (%),[2]; 5 mg/Kg p. o.,247.4%
"COc1cc(CC(=O)NCCCc2ccc(C)c(C)c2)ccc1OCCN [Form III, 2-[4-(2-aminoethoxy)-3-methoxyphenyl]-N-[3-(3,4-dimethylphenyl)propyl]acetamide]",relative humidity to which the dihydrate is stable upon desorption,[6]; DVS desorption,≥ 30 % RH
"COc1cc(CNC(=O)CCCC/C=C/C(C)C)ccc1O [Capsaicin, trans-8-methyl-N-vanillyl-6-nonenamide]",Inhibition (%),"[3]; 25 mg/Kg, route not given",90%
"COc1cc(CC(=O)NCCCc2ccc(C)c(C)c2)ccc1OCCN [Form I, 2-[4-(2-aminoethoxy)-3-methoxyphenyl]-N-[3-(3,4-dimethylphenyl)propyl]acetamide]",conversion of form under thermal conditions (in words),"[1]; 10 minutes of isothermal heating near melting point, 105° C.",convert to Form II
same,hygroscopicity (in words),[6],propensity to absorb moisture
same,relative humidity at which moisture is taken up,"[6]; less crystalline, or amorphous, samples",approximately 30 % RH
COc1ccc2cc([C@H](C)C(=O)O)ccc2c1 [Naproxen],Analgesic activity (%),[7],28.6%
"COc1cc(CC(=O)NCCCc2ccc(C)c(C)c2)ccc1OCCN [Form II, 2-[4-(2-aminoethoxy)-3-methoxyphenyl]-N-[3-(3,4-dimethylphenyl)propyl]acetamide]",moisture retention upon desorption (in words),[6]; DVS desorption,did not retain moisture upon desorption
same,hygroscopicity (in words),[6],non-hygroscopic; also recorded: no appreciable hygroscopicity
